Structures can show the parent of a compound that is named as a salt.
What was measured:
[1] = test system: CTG-0142 EWS patient-derived xenograft; assay: Xenograft Tumor Model CTG-0142; assay type: in vivo, mouse; conditions: comparator day 28, p-value 0.376
Experimental: (§1) The efficacy of 5-(5-(2-(3-aminopropoxy)-6-methoxyphenyl)-1H-pyrazol-3-ylamino)pyrazine-2-carbonitrile methanesulfonic acid monohydrate is measurable in vivo in mouse models of neuroblastomas and human pediatric and adult sarcomas. 5-(5-(2-(3-Aminopropoxy)-6-methoxyphenyl)-1H-pyrazol-3-ylamino)pyrazine-2-carbonitrile methanesulfonic acid monohydrate (10 mg/kg) can be administered subcutaneously to nude mice bearing either cell-derived xenografts (CDX) or patient-derived xenografts (PDX) of human rhabdomyosarcoma, desmoplastic small round cell tumor (DSRCT), osteosarcoma, and Ewing's sarcoma using a 3 day on, 4 day off b.i.d. dosing schedule. Tumor volume and body weight can be measured two times per week. Tumor-specific parameters can be evaluated by immumohistochemistry. […]
(§2) For all “ST” models (encompassing RMS and LMS), patient-derived xenografts are established from viable human tumor tissue and are serially passaged in animals a limited number of times to maintain tumor heterogeneity. […] Tumor response is determined by tumor volume measurement performed twice per week during the course of treatment.

[2] = test system: Ewing's Sarcoma xenograft models; assay: Sarcoma xenograft models by tumor subtype: Ewing's Sarcoma; assay type: in vivo, mouse; conditions: age of patients 8-17 years
Experimental: as §1, §2

[3] = test system: SJCRH-30 human RMS cancer cell xenograft; assay: Xenograft Tumor Model SJCRH-30; assay type: in vivo, mouse
Experimental: (§3) The efficacy of 5-(5-(2-(3-aminopropoxy)-6-methoxyphenyl)-1H-pyrazol-3-ylamino)pyrazine-2-carbonitrile methanesulfonic acid monohydrate is measurable in vivo in mouse models of neuroblastomas and human pediatric and adult sarcomas. 5-(5-(2-(3-Aminopropoxy)-6-methoxyphenyl)-1H-pyrazol-3-ylamino)pyrazine-2-carbonitrile methanesulfonic acid monohydrate (10 mg/kg) can be administered subcutaneously to nude mice bearing either cell-derived xenografts (CDX) or patient-derived xenografts (PDX) of human rhabdomyosarcoma, desmoplastic small round cell tumor (DSRCT), osteosarcoma, and Ewing's sarcoma using a 3 day on, 4 day off b.i.d. dosing schedule. Tumor volume and body weight can be measured two times per week. Tumor-specific parameters can be evaluated by immumohistochemistry.
Expand human RMS cancer cells SJCRH-30 (St. Jude Children's Research Hospital) in culture, harvest, and inject 5×10^6 cells in 200 μL of HBSS subcutaneously into the right rear flank of female athymic nude mice (20-22 g, Harlan Laboratories). Expand human rhabdomyosarcoma cancer cells RD (ATCC, #CCL-136) in culture, harvest, and inject, 5×10^6 cells in 200 μL of HBSS subcutaneously into the right rear flank of female athymic nude mice (20-22 g, Harlan Laboratories).
For all “ST” models (encompassing RMS and LMS), patient-derived xenografts are established from viable human tumor tissue and are serially passaged in animals a limited number of times to maintain tumor heterogeneity. In subcutaneous models, athymic nude mice (Crl:NU(NCr)-Foxn1nu) or CB-17 SCID mice (CRL-CB17/Icr-Prkdcscid/IcrIcoCrl) are injected or implanted unilaterally into the flank with tumor fragments harvested from host animals, each implanted from a specific passage lot. For all studies, measure tumor growth and body weight twice per week beginning on the seventh day after implantation. When tumor size reaches 150-300 mm^3, randomize animals and group into groups of 4-7 animals. Prepare test compound in an appropriate vehicle (e.g. vehicle can be 20% Captisol® in sterile water) and administer subcutaneously for three consecutive days followed by a four day dosing holiday and repeat for a minimum of four weeks. Tumor response is determined by tumor volume measurement performed twice per week during the course of treatment.

[4] = test system: CTG-0926 DSRCT patient-derived xenograft; assay: Xenograft Tumor Model CTG-0926; assay type: in vivo, mouse; conditions: comparator day 28, p-value <0.001
Experimental: as §1, §2

[5] = test system: CTG-0816 EWS patient-derived xenograft; assay: Xenograft Tumor Model CTG-0816; assay type: in vivo, mouse; conditions: comparator day 28, p-value 0.069
Experimental: as §1, §2

[6] = test system: pediatric sarcoma in vivo mouse models; assay: Pediatric tumor / pediatric sarcoma in vivo mouse models (panel)
Experimental: as §3
For all “CTG” models (encompassing human RMS, DSRCT, EWS, OS and LMS patient-derived xenograft models), female NCr nude spontaneous mutant mice (5-8 weeks old, Taconic) are implanted unilaterally in the flank region with tumor fragments harvested from donor animals, each implanted from a specific passage lot.
For all “ST” models (encompassing RMS and LMS), patient-derived xenografts are established from viable human tumor tissue and are serially passaged in animals a limited number of times to maintain tumor heterogeneity. In subcutaneous models, athymic nude mice (Crl:NU(NCr)-Foxn1nu) or CB-17 SCID mice (CRL-CB17/Icr-Prkdcscid/IcrIcoCrl) are injected or implanted unilaterally into the flank with tumor fragments harvested from host animals, each implanted from a specific passage lot. For all studies, measure tumor growth and body weight twice per week beginning on the seventh day after implantation. When tumor size reaches 150-300 mm^3, randomize animals and group into groups of 4-7 animals. […] Tumor response is determined by tumor volume measurement performed twice per week during the course of treatment.

[7] = test system: CTG-1116 RMS patient-derived xenograft; assay: Xenograft Tumor Model CTG-1116; assay type: in vivo, mouse; conditions: comparator day 17, p-value <0.001
Experimental: as §1, §2

[8] = test system: CTG-0241 OS patient-derived xenograft; assay: Xenograft Tumor Model CTG-0241; assay type: in vivo, mouse; conditions: comparator day 28, p-value 0.019
Experimental: as §1, §2

Calu-6 lung xenograft = assay: Single Agent Efficacy Dosing, Calu-6 xenograft; assay type: in vivo, mouse; conditions: Calu-6, 15 mg/kg SC, BID×5 rest 2 days ×3 cycles
Experimental: The ability of CHK1 inhibitors to effect tumor killing can be determined in vivo using the Calu-6 lung xenograft efficacy model. Calu-6 lung cancer cells (ATCC) are cultured as described above. Cells are harvested and washed twice with phosphate buffered saline and 1×10^6 cells (Calu-6) in growth media (without serum) are mixed with equal volume of BD Matrigel™ matrix (BD Bioscience, Franklin, NJ), then injected subcutaneously into the flank of nude mice (CD-1 nu/nu, from Charles River Labs, Wilmington, MA).

[9] = results ranging from stable disease to complete response

## COc1cccc(OCCCN)c1-c1cc(Nc2cnc(C#N)cn2)n[nH]1 [Example 5, 5-(5-(2-(3-Aminopropoxy)-6-methoxyphenyl)-1H-pyrazol-3-ylamino)pyrazine-2-carbonitrile methanesulfonic acid monohydrate]
[1]
  % T/C: 66%
[2]
  Result of Treatment: Stable Disease (models): 1/4 Stable Disease
[3]; SJCRH-30, RMS, comparator day 38, p-value <0.001
  % Regression: −78%
[3]; SJCRH-30 aRMS model
  course of the regression upon withdrawal of the drug: immediately reversed
  tumor response during treatment: complete regression
[3]; SJCRH-30 aRMS model, 10 mg/kg
  response of subsequent regrowth to further treatment: resistant to further treatment
[4]
  % Regression: −76%
[5]
  % T/C: 44%
[6]; ranging from stable disease to complete regression, 10 mg/kg SC, 3 day on, 4 day off b.i.d.
  pediatric tumor models with strong single agent activity: 7/13
[6]; [9]
  pediatric sarcoma in vivo mouse models in which effective as a single agent (models): 7/17
  pediatric sarcoma in vivo mouse models in which effective as a single agent (percent): ~41%
[7]
  % T/C: 8%
[8]
  % T/C: 48%

## COc1cccc(OCCCN)c1-c1cc(Nc2cnc(C#N)cn2)n[nH]1 [Example 2, 5-(5-(2-(3-Aminopropoxy)-6-methoxyphenyl)-1H-pyrazol-3-ylamino)pyrazine-2-carbonitrile dihydrogen chloride salt]
Calu-6 lung xenograft
  growth inhibition compared with gemcitabine plus compound combination schedule: superior growth inhibition
  tumor regression: Complete tumor regression is rapid and durable

Source: US12558345B2, “CHK1/2 inhibitors for use in the treatment of neuroblastomas and/or soft tissue sarcomas” (Eli Lilly and Company, priority 2015, dated 2026)
